≈ marks a conversion by molar mass, not a printed value. Like-named read-outs stand apart in the source and are kept apart here.
How the values were obtained:
[1] = test system: rat calvaria (PTH-stimulated calcium release); assay: In vitro bone organ culture, PTH-stimulated calcium release from calvaria; assay type: cell-based; conditions: for PTH-stimulated calcium release from calvaria: 10^-5 M (FIG. 3)
Protocol: Essentially, fetal or neonatal rat calvaria were excised and cultured in serum supplemented BGJb medium (GIBCO) containing HEPES buffer (hydroxyethylpiperazine-ethanesulfonate), penicillin and streptomycin. Bone samples were individually incubated in sterile multi-well plates at 37° C./100% relative humidity/95:5 air:CO2. If appropriate, bone may be radiolabeled by injection of mothers with ^45 CACl2 or pups with tritiated proline.
1. In vitro inhibition of bone resorption. Rat calvaria were cultured as described. Some cultures include the addition of parathyroid hormone (PTH) in the presence and absence of test compounds (10^-5 M).

carbonic anhydrase = assay: Carbonic anhydrase inhibition (modified micromethod, CO2/bicarbonate colour change time); assay type: biochemical; conditions: for carbonic anhydrase inhibition: before hydrolysis, final assay concentration 5×10^-6 M (FIG. 2); for Potency as CA inhibitor: relative to acetazolamide = 100, Table 5
Protocol: B--Carbonic Anhydrase Inhibition
A modification of the micromethod of Maven, J. Pharmacol. Exp. Ther. 130: 26-29 (1960) was used to assess carbonic anhydrase activity and inhibition. In essence, a bicarbonate solution was incubated at 0° C. in a vessel which was constantly bubbled with CO2. A pH indicator (phensulfophthalein) was included. The dependent variable was the amount of time required to achieve color change (addition of bicarbonate is defined as time zero). Addition of carbonic anhydase decreased reaction time. Further addition of enzyme inhibitors extended reaction time back to control values.
All are tested before and after being subjected to hydrolyric conditions with the final assay concentration being 5×10^-6 M. For these experiments, the dependent variable was the amount of time required for acidification of a CO2 /bicarbonate buffer system to a defined endpoint. […] Finally, test drugs were added to enzyme-containing reaction mixtures, and any increase in reaction time was indicative of enzyme inhibition.

[2] = test system: PTH-induced bone resorption; assay: In vivo Induced Secondary Hyperparathyroid Rat (ISHR); conditions: for effect on developing hypercalcemia: given 24 hours prior to nephrectomy; for Blood Calcium: i.p. 24 h before nephrectomy, bled 4 h post nephrectomy, control 12.2 ± 0.4, prenephrectomy 10.1 ± 0.3, ** P ≤ 0.05, preliminary
Protocol: 1. The Induced Secondary Hyperparathyroid Rat
In order to test the biological activity of these substances, test compounds were injected intraperitoneally into 100 gram female rats. Twenty-four hours later the animals were subjected to bilateral nephrectomy. Animals were bled 4 hours post nephrectomy. […] The resulting decline in the concentration of ionized calcium in the blood served as a stimulus for the release of PTH. In animals with functional parathyroid glands, a secondary hyperparathyroidism developed with an ensuing hypercalcemia due to PTH-induced bone resorption. Agents which inhibited bone resorption attenuate this hypercalcemic response.

[3] = Binding to hydroxyapatite; conditions: for bound to hydroxyapatite: 10^-5 M, 30 minute incubation (FIG. 1)
Protocol: A--Binding to Hydroxyapatite
For these studies, 10^-5 M aqueous solutions of the various test agents were added to a slurry of hydroxyapatite (HA), the principle mineral constituent of bone. After a 30 minute incubation, HA was separated by centrifugation and treated with 1.0M phosphate buffer (pH=7) or 2.0M phosphate buffer (pH=7). Percentage of total drug bound and eluted was determined using UV-visible spectrophotometry.
1. Binding to hydroxyapatite.

[4] = test system: PTH-induced resorption of bone in culture; conditions: cited from earlier work
physchem = conditions: for chromatographic logP: reverse phase hplc lc-18-db, pH 2
Protocol: Chromatographic characterization was accomplished using hydroxyapetite (HA) chromatography, silica gel thin layer chromatography and high performance reverse phase liquid chromatography (HPLC) with the following characteristics:
Column: LC-18-DB (Supelco)/25 cm/5 um particles.
Mobile phase: 9% tetrahydrofuran/9% CH3 CN/1% CH3 OH/81% 5 mM sodium phosphate, pH=2
Detection: UV-visible absorbance 210-500 nm (photo-diode array scanning)
This mode of analysis served simultaneously as a qualitative analytic procedure (full UV-vis spectrum) as well as providing a quantitative estimate of drug concentration.
Chromatographic data was obtained using the HPLC system described.

[5] = pH 7.6
Solubility pH 7.6 = assay type: physicochemical
[6] = cited from earlier work; for acidosis: systemic / metabolic acidosis
[7] = test system: response to PTH (plasma calcium); conditions: ISHR without parathyroids; cited from earlier work
[8] = test system: PTH-induced bone resorption; conditions: literature (Waite et al. 1970); cited from earlier work
[9] = kidney intact animals; cited from earlier work
[10] = test system: PTH-stimulated calcium release from bone; assay: In vivo classical endocrine ablation/replacement model (PTH given to parathyroidectomized rats); parameters: species or system rat; conditions: PTH group
Protocol: Parathyroid hormone was administered to parathyroidectomized rats who received no food for 12 hours before PTH injection, to minimize gut calcium absorption. In an attempt to attenuate the developing increase in plasma calcium, drug was administered 24 hours prior to PTH injection.
Parathyroid hormone was administered to parathyroidectomized rats who had received no food for 12 hours before PTH injection, to minimize gut calcium absorption.

With CN(C)C1C(=O)C(C(N)=O)=C(O)C2(O)C(=O)C3=C(O)c4c(OC(CO)COC(=O)Oc5ccc6nc(S(N)(=O)=O)sc6c5)cccc4C(C)(O)C3CC12 (stereo not shown) [TAE-2] as the molecule, how does the “PTH-stimulated bone resorption / calcium release” value ([1]; calvaria in culture (FIGS. 8-10)) read?
Its value is “attenuates PTH stimulated calcium release from calvaria in culture (FIG. 9) in a concentration dependent fashion”.

Which carbonic anhydrase inhibition (carbonic anhydrase) does the source give for CN(C)C1C(=O)C(C(N)=O)=C(O)C2(O)C(=O)C3=C(O)c4c(O)cccc4C(C)(O)C3CC12 (stereo not shown) [tetracycline] here?
The carbonic anhydrase inhibition was “without effect”.

And the “effect on developing hypercalcemia” value [2]?
The value was “does not appear to be effective”.

What about the “Blood Calcium” value [2] of the same molecule?
The value was 11.8 ± 0.4 mg/dL.

And the bound to hydroxyapatite [3]?
The bound to hydroxyapatite was 90%.

What about the “% Bound to Hydroxyapatite” value ([3]; Table 6) of the same molecule?
Its value is 85%.

And the “binding to / elution from hydroxyapatite” value ([3]; result in words, sodium phosphate buffer, pH 7)?
Its value is “eluted with 1.0M sodium phosphate”.

And the “inhibition of PTH in vitro” value ([4]; at high concentrations)?
The value was “typically inhibits PTH in vitro”.

And the “PTH-stimulated calcium release from calvaria” value [1]?
The value was “without effect”.

Which “carbonic anhydrase inhibition after hydrolytic conditions” value (carbonic anhydrase; following incubation under hydrolytic conditions, 5×10^-6 M (FIG. 2)) does the source give for CCOC(=O)CCCCC(=O)NS(=O)(=O)c1nnc(NC(C)=O)s1 [AAOEt, acetazolamide-adipate-ethyl ester] here?
Its value is “inhibited carbonic anhydrase activity”.

And the “lipophilicity relative to parent compounds” value (physchem; HPLC)?
The value was “more lipophilic than is its parent, acetazolamide”.

And the chromatographic logP (physchem)?
The chromatographic logP was 0.238.

What about the bound to hydroxyapatite [3] of the same molecule?
Its bound to hydroxyapatite is 3%.

For NS(=O)(=O)c1nnc(NC(=O)CCC(=O)NCCCCCC(O)(P(=O)(O)O)P(=O)(O)O)s1 [PAA], which Ki (carbonic anhydrase; read-out: KI as carbonic anhydrase inhibitor) is on record?
The Ki was 0.12 µM.

What about the “water solubility relative to parent thiadiazolesulfonamide” value (physchem) of the same molecule?
Its value is “more water soluble than the parent thiadiazolesulfonamide”.

Which “Potency as CA inhibitor” value (carbonic anhydrase) does the source give for Nc1nnc(S(N)(=O)=O)s1 [WP-061786, 2-amino-1,3,4-thiadiazole-5-sulfonamide] here?
Its value is 20%.

What about the chromatographic logP (physchem) of the same molecule?
The chromatographic logP was -0.409.

What about the “% Bound to Hydroxyapatite” value [3] of the same molecule?
The value was 0%.

And the “ether:buffer partition coefficient” value [5]?
The value was 0.15.

And the solubility (Solubility pH 7.6)?
The solubility was 28.4 mM (≈ 5120 µg/mL).

Which carbonic anhydrase inhibition (carbonic anhydrase) does the source give for CC(=O)Nc1nnc(S(N)(=O)=O)s1 [acetazolamide] here?
Its carbonic anhydrase inhibition is “inhibits carbonic anhydrase activity”.

And the “Potency as CA inhibitor” value (carbonic anhydrase)?
Its value is 100%.

What about the “change in plasma calcium concentration” value ([6]; normal animals) of the same molecule?
The value was “no change in plasma calcium concentration is observed”.

What about the acidosis [6] of the same molecule?
The acidosis was “causes a systemic acidosis”.

And the acidosis ([6]; listed as Acetazolamide)?
Its acidosis is “produces a metabolic acidosis”.

And the “inhibition of response to administered PTH” value [7]?
The value was “abolish it”.

And the “Blood Calcium” value ([2]; 0.2 mol/kg as printed)?
The value was 12.6 ± 0.2 mg/dL.

And the “effect on developing hypercalcemia” value [2]?
Its value is “not effective”.

And the “inhibition of the increase in total plasma calcium in ISHR” value [8]?
The value was “completely inhibits this response”.

And the bound to hydroxyapatite [3]?
The bound to hydroxyapatite was 19%.

What about the “inhibition of PTH-induced resorption” value ([4]; tissue culture (Minkin and Jennings)) of the same molecule?
Its value is “inhibition of PTH-induced resorption”.

And the half-life [9]?
The half-life was “approximately 50 minutes”.

And the “PTH-stimulated calcium release from calvaria” value [1]?
The value was “inhibited”.

And the solubility (Solubility pH 7.6)?
Its solubility is 6.7 mM (≈ 1490 µg/mL).

B1: PTH: parathyroid hormone (protein, UniProt P01270 32-115, looked up)
Parathyroid hormone: SVSEIQLMHNLGKHLNSMERVEWLRKKLQDVHNFVALGAPLAPRDAGSQRPRKKEDNVLVESHEKSLGEADKADVNVLTKAKSQ
modifications: Parathyroid hormone
Which “net release of calcium from cultured bone” value ([1]; treatment with PTH) does the source give for B1 here?
The value was “significant stimulation”.

What about the “Blood Calcium, Before PTH” value [10] of the same molecule?
Its value is 5.2 ± 0.3 mg/dL.

And the “Blood Calcium, 6 hours post-treatment” value ([10]; control 5.5 ± 0.2, ** p < 0.05 vs control)?
Its value is 7.2 ± 0.2 mg/dL.
